Several values for one entry are separate records, joined by “and”; a condition that tells them apart may be missing. Equal entries are not always repeated. Where two headings read alike, the source gives them in different places.
What was measured:
Assay type in all cases: cell-based
[1] = system: Glioma U373VR (MGMT low) (TMZ resistant); experiment: MTT assay for 7-day toxicity assay
[2] = system: Glioma SNB19VR (MGMT−) (TMZ resistant); experiment: MTT assay for 7-day toxicity assay
[3] = system: range of other cell lines (e.g., colon, melanoma); experiment: MTT assay, other cell lines; conditions: for activity in words: other lines (e.g., colon, melanoma)
Source text: This assay was first described in Mosmann, T., 1983, “Rapid colorimetric assay for cellular growth and survival: Application to proliferation and cytotoxicity assays”, Journal of Immunological Methods, Vol. 65, Nos. 1-2, pp. 55-63.
Glioma cell lines, SNB19 and U373, both MGMT transfected (i.e., SNB19M and U373M) and vector controls (i.e., SNB19V and U373V); colorectal carcinoma cell lines, HCT116, HT29, and DLD1; melanoma cell line, SKMEL-28; breast cell line, MCF-7; and normal human fetal lung fibroblast cell line, MRC-5; were harvested at 60-80% confluence—during the logarithmic phase of growth.
Following harvesting, cells in suspension were gently syringed through a 23 gauge needle to obtain a near-single cell suspension. The desired cell seeding densities were used and added into 96-well plates in 180 μL culture medium if only one test compound was to be added, or 160 μL if two test compounds were to be added in combination, which were allowed to attach at 37° C. (5% CO2) overnight. For the 7 day assay, the cell seeding density for different cell lines was as follows: SNB19V, SNB19M: 650 cells/well; U373V, U373M: 650 cells/well; SNB19VR, U373VR: 650 cells/well; HCT116, DLD-1, SKMEL-28, MRC-5, MCF-7: 400 cells/well.
The two peripheral lanes were used as blank wells (cell free) and filled with 200 μL of medium in order to minimise medium evaporation from the plate. A separate time zero (T0) plate was set up alongside other plates. Serial dilutions in tissue culture medium of a 100 mM stock of test compound in DMSO were prepared immediately before each assay to ten times the final concentrations required, and then 20 μL was added to each well (200 μL total media per well) to achieve final concentrations of 0.5 μM, 1 μM, 5 μM, 10 μM, 50 μM, 100 μM, 500 μM, and 1000 μM. A minimum of four wells received the same test compound concentration. To control wells, including those in the T0 plate, 20 μL of medium was added. Previous assays had been carried out to verify that cell viability was not affected by the amount of DMSO added into the test compound-treated wells. A separate plate treated in the same way, but free of test compound, was used as a measure of cell viability at the time of drug addition (day 0).
After incubation at 37° C., 5% CO2 for 7 days (or immediately for the day 0 plate), cell viability was quantified using the MTT assay. 50 μL of sterile filtered MIT (3-(4,5-dimethylthiazol-2-yl)-2,5-diphenyltetrazolium bromide) (2 mg/mL in phosphate buffered saline) were added to each well (final concentration 0.4 mg/mL) and the plates were re-incubated for 4 hours to allow metabolic conversion of MTT by dehydrogenases in viable cells to insoluble formazan crystals. The medium and any unconverted MTT was aspirated, 150 μL of DMSO was added to each well, and the plates were shaken on a plate shaker (Stuart Scientific 503) to ensure complete formazan solubilisation.
The intensity of absorbance is directly proportional to cell viability. A linear relationship exists between cell number and the amount of formazan and so the mean absorbance determined for each well of the same concentration can be used as a quantitative measure of viable cells compared to the controls. A graph of absorbance against drug concentration was plotted and the test compound concentration (GI50) causing 50% inhibition of control cell growth (absorbance increase from day 0) was calculated by interpolation.

[4] = system: Colon HT29 (MMR proficient); experiment: MTT assay for 7-day toxicity assay
In short: (§1)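 Cells seeded at 400 cells/well, attached overnight, then exposed to compound at 0.5–1000 μM final for 7 days at 37 °C, 5% CO2. Viability read by MTT, with a day-0 plate fixed at drug addition as reference.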

[5] = system: Breast MCF-7 (MMR proficient); experiment: MTT assay for 7-day toxicity assay
In short: as §1

[6] = 168 h, Glioma U373VR (MGMT low, TMZ resistant), 7-day MTT, single determinations, read-out: GI50
[7] = 168 h, Glioma SNB19VR (MGMT−, TMZ resistant), 7-day MTT, single determinations, read-out: GI50
[8] = Homo sapiens, HT-29, 168 h, Colon HT29 (MMR proficient), 7-day MTT, single determinations, read-out: GI50
[9] = Glioma U373VR (MGMT low, TMZ resistant), 7-day MTT, single determinations, read-out: GI50
[10] = Glioma SNB19VR (MGMT−, TMZ resistant), 7-day MTT, single determinations, read-out: GI50
[11] = Colon HT29 (MMR proficient), read-out: GI50
[12] = Homo sapiens, HT-29, Colon HT29 (MMR proficient), read-out: GI50
[13] = Homo sapiens, MCF7, Breast MCF-7 (MMR proficient), read-out: GI50
[14] = Glioma SNB19VR (MGMT−) (TMZ resistant), read-out: GI50
[15] = Glioma U373VR (MGMT low) (TMZ resistant), read-out: GI50

Compound `C[C@H](c1ccccc1)n1nnc2c(C(N)=O)ncn2c1=O` [BB-001, (R)-3-(-1-Phenylethyl)-8-carbamoylimidazotetrazin-4-one] has a GI50 [1, 6] of 63.7 µM and a GI50 [2, 7] of 46.6 µM.
`C#CCn1nnc2c(C(N)=O)ncn2c1=O` [EE-001, 3-Propargyl-8-carbamoylimidazotetrazin-4-one] was tested, and the activity in words [3] was “more potent than TMZ”, the GI50 [1, 6] was 40.3 µM and the GI50 [4, 8] was 21.1 µM. The GI50 [2, 7] was 54.9 µM.
`CCOC(=O)Cn1nnc2c(C(N)=O)ncn2c1=O` [PX-016] showed a GI50 [1, 6] of 57.5 µM, a GI50 [1, 9] of 71.1 µM and a GI50 [2, 7] of 37.6 µM. For the same compound, the GI50 [2, 10] was 62 µM.
With `COCn1nnc2c(C(N)=O)ncn2c1=O` [PX-020] the GI50 [4, 11] was 49.8 µM, the GI50 [4, 12] was 59.4 µM and the GI50 [5, 13] was 33.4 µM. For the same compound, the GI50 [2, 14] was 25.8 µM and 28.9 µM and 27.8 µM and 29.2 µM and 16.8 µM.
For `C[Si](C)(C)CCOCn1nnc2c(C(N)=O)ncn2c1=O` [PX-021], the GI50 [4, 11] was 55.8 µM, the GI50 [4, 12] was 58.5 µM and the GI50 [5, 13] was 30.3 µM.
With `NC(=O)c1ncn2c(=O)n(CCl)nnc12` [PX-030] the GI50 [1, 15] was 28.9 µM and 34.5 µM.
In the case of `Cn1nnc2c(C(N)=O)ncn2c1=O` [TMZ, 3-Methyl-4-oxo-3,4-dihydro-imidazo[5,1-d][1,2,3,5]tetrazine-8-carboxylic acid amide, reference compound], the GI50 ([3]; range of other cell lines (Table 1)) is reported as 200 to 700 µM, the GI50 [1, 6] is reported as 316 µM and the GI50 [1, 15] is reported as 289 µM. For the same compound, the GI50 [1, 9] was 293 µM and 234 µM and 328 µM and 299 µM and 258 µM and 326 µM and 257 µM, the GI50 ([1]; Glioma U373VR (MGMT low, TMZ resistant), average of Table 1, read-out: TMZ GI50 Average) was 289 µM and the GI50 ([4]; Colon HT29 (MMR proficient), 7-day MTT, single determinations, read-out: GI50) was 578 µM. It also gave a GI50 [4, 8] of 702 µM, a GI50 ([4]; Homo sapiens, HT-29, Colon HT29 (MMR proficient), average of Table 1, read-out: TMZ GI50 Average) of 640 µM and a GI50 [4, 12] of 640 µM. It also gave a GI50 ([5]; Breast MCF-7 (MMR proficient), 7-day MTT, single determinations) of 424 µM, a GI50 ([5]; Homo sapiens, MCF7, 168 h, Breast MCF-7 (MMR proficient), 7-day MTT, single determinations) of 342 µM and a GI50 ([5]; Homo sapiens, MCF7, read-out: TMZ GI50 Average, Breast MCF-7 (MMR proficient), average of Table 1) of 383 µM. The GI50 ([5]; Homo sapiens, MCF7, Breast MCF-7 (MMR proficient)) was 383 µM, the GI50 [2, 7] was 314 µM and the GI50 [2, 14] was 280 µM. For the same compound, the GI50 [2, 10] was 251 µM and 275 µM and 282 µM (2×) and 294 µM and 263 µM and the GI50 ([2]; Glioma SNB19VR (MGMT−, TMZ resistant), average of Table 1, read-out: TMZ GI50 Average) was 280 µM.
`C[S+]([O-])Cn1nnc2c(C(N)=O)ncn2c1=O` (stereo not drawn) [UU-003, 3-Methanesulfinylmethyl-4-oxo-3,4-dihydro-imidazo[5,1-d][1,2,3,5]tetrazine-8-carboxylic acid amide] was tested, and the activity in words [3] was “surprising efficacy”.
